Like-named read-outs stand apart in the source and are kept apart here. Residues, ends and D or L forms follow the SMILES beside them. *: point of attachment. C16 diacid = O=C(O)CCCCCCCCCCCCCCC(=O)*
How the values were obtained:
[1] = Solubility by visual inspection of peptide solutions; format: physicochemical; settings: 1 mg/ml, TFA, Phosphate (7.4)
Summary of the method: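 Solubility scored by eye: clear, colorless appearance after gentle mixing. Samples prepared at 1, 5, 7.5 or 15 mg/ml in either pH 7.4 water (NaOH-adjusted) or 50 mM sodium phosphate buffer, pH 7.4.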

[2] = molecular target: T1, human GIP receptor (Homo sapiens, UniProt P48546); assay: cAMP assay Alternative 2 (Gaddum assay), antagonist potency pKb; format: cell-based
T1 construct: host or cells: HEK-293 cells, transient transfection (Lipofectamine 2000), cDNA in pCMV-Script vector
T1 sequence (P48546 22-466): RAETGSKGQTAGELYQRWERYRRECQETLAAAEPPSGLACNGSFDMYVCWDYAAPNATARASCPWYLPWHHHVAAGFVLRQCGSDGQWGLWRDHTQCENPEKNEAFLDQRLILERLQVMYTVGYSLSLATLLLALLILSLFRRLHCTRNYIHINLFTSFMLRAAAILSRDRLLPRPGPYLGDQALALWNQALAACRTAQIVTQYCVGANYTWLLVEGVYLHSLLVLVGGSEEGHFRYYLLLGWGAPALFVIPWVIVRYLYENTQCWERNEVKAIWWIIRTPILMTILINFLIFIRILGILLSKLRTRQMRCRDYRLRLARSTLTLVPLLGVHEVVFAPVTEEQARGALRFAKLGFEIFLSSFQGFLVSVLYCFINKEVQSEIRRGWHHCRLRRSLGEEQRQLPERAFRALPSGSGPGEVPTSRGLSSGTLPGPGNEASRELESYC
Procedure: HEK293 cells were cultured in 10% CO2 and 37° C. in Dulbecco's modified Eagle's medium supplemented with 10% fetal bovine serum, 2 mM glutamine, 180 units/ml penicillin, and 45 µg/ml streptomycin. Transient transfection with hGIPR for the CisBio assay from Table 2C was performed by using Lipofectamine 2000.
Antagonist potency (pKb) was estimated in a functional setting. The estimated pKb values were calculated from the shifts of the agonist-concentration-response curves in the presence of a single dose of GIP peptide antagonists using the Gaddum equation: pKb=log(DR-1)-log(B), where DR (EC50′/EC50) is the dose ratio calculated from EC50 of GIP1-42 obtained in the presence and absence (EC50) of antagonist, and B is the antagonist concentration used.
The in vitro functional assessment of compounds towards human GIP receptor was determined in HEK-293 cells transiently expressing the receptor. On the day of the assay, cells were resuspended in HBSS buffer (Gibco, 14025-50) supplemented with […] (Gibco, 15630-106), 0.1% Pluronic F-68 (Gibco, 24040-032) and 0.1% casein (Sigma, C4765), and plated in 384-well plates at a density of 3500 cells/well. The GIP peptide analogues of the present disclosure were diluted in HBSS buffer supplemented with 20 mM HEPES, 0.1% pluronic, 0.1% casein and 500 uM IBMX. […] Increasing dose of agonist (GIP1-42) was subsequently added to cells and incubated for additionally 30 min at 37° C. The intracellular cAMP was quantitatively determined using the CisBio cAMP Dynamic 2 HTRF Assay Kit. The assay is based on a competition between native cAMP produced by cells and cAMP labeled with the dye d2 for binding to a cryptate labeled antibody. The specific signal (i.e. energy transfer signal) is inversely proportional to the concentration of cAMP in the sample.
The cAMP-d2 conjugate and the antibody anti-cAMP-Cryptate, both diluted in lysis buffer provided in the kit, were added to the cells according to the manufacturer's protocol. The resulting competitive assay was incubated for 60 minutes at room temperature, and the signal was detected by using a PerkinElmer Envision® instrument with excitation at 320 nm and emission at 665 nm and 620 nm. The HTRF ratio (emission at 665 nm/620 nm*10,000) is inversely proportional to the amount of cAMP present and is converted to nM cAMP per well using a cAMP standard curve.

[3] = Physical stability: fibril formation in Thioflavin T (ThT) assay with agitation; format: physicochemical; settings: 1 mg/ml, TFA, Phosphate (7.4); 25° C., agitation
Summary of the method: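 Read-out is continuous ThT fluorescence at 486 nm, with lag time taken where signal reaches 10% between pre- and post-transition baselines. Filtered samples (1, 5, 7.5 or 15 mg/ml; pH 7.4 phosphate buffer or NaOH-adjusted water) were stressed at 25° C. by orbital rotation at 300 rpm with one silica bead per well.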

[4] = Table 2C, Gaddum equation, single antagonist dose, HEK-293 hGIPR, read-out: nM (Kb)

SMILES | Visual appearance [1] | Kb [2] [nM] | Avr lag time (h) [3] | Kb [2, 4] [nM] | Avr lag time [3] [h]
CC[C@H](C)[C@H](NC(=O)[C@H](CCCCN)NC(=O)[C@H](CC(=O)O)NC(=O)[C@H](CCSC)NC(=O)[C@H](CCCCNC(=O)CCCCCCCCCCCCCCC(=O)O)NC(=O)[C@@H](NC(=O)[C@H](CO)NC(=O)[C@H](Cc1ccc(O)cc1)NC(=O)[C@H](CC(=O)O)NC(=O)[C@H](CO)NC(=O)[C@@H](NC(=O)[C@H](Cc1ccccc1)NC(=O)[C@@H](NC(=O)CNC(=O)[C@@H](N)CCC(=O)O)[C@@H](C)O)[C@@H](C)CC)[C@@H](C)CC)C(=O)N[C@@H](Cc1c[nH]cn1)C(=O)N[C@@H](CCC(N)=O)C(=O)N[C@@H](CCC(N)=O)C(=O)N[C@@H](CC(=O)O)C(=O)N[C@@H](Cc1ccccc1)C(=O)N[C@H](C(=O)N[C@@H](CCC(=O)O)C(=O)N[C@@H](Cc1c[nH]c2ccccc12)C(=O)N[C@@H](CC(C)C)C(=O)N[C@@H](CC(C)C)C(=O)N[C@@H](C)C(=O)N[C@@H](CCC(N)=O)C(=O)N[C@@H](CCCCN)C(=O)N1CCC[C@H]1C(=O)N[C@@H](CO)C(=O)N[C@@H](CO)C(=O)NCC(=O)N[C@@H](C)C(=O)N1CCC[C@H]1C(=O)N1CCC[C@H]1C(=O)N1CCC[C@H]1C(=O)N[C@@H](CO)C(=O)O)C(C)C [AT740] (H-EGTFISDYSIK(C16 diacid)MDKIHQQDFVEWLLAQKPSSGAPPPS-OH; N-terminus assumed) | Clear | 14 | fnd (Fnd = fibrils not detected within experiment time (96 hours) with agitation.) | – | –
CC[C@H](C)[C@H](NC(=O)[C@H](CO)NC(=O)[C@H](Cc1ccc(O)cc1)NC(=O)[C@H](CC(=O)O)NC(=O)[C@H](CO)NC(=O)[C@@H](NC(=O)[C@H](Cc1ccccc1)NC(=O)[C@@H](NC(=O)CNC(=O)[C@@H](N)CCC(=O)O)[C@@H](C)O)[C@@H](C)CC)C(=O)N[C@@H](C)C(=O)N[C@@H](CCSC)C(=O)N[C@@H](CC(=O)O)C(=O)N[C@@H](CCCCNC(=O)CCCCCCCCCCCCCCC(=O)O)C(=O)N[C@H](C(=O)N[C@@H](Cc1c[nH]cn1)C(=O)N[C@@H](CCC(N)=O)C(=O)N[C@@H](CCC(N)=O)C(=O)N[C@@H](CC(=O)O)C(=O)N[C@@H](Cc1ccccc1)C(=O)N[C@H](C(=O)N[C@@H](CCC(=O)O)C(=O)N[C@@H](Cc1c[nH]c2ccccc12)C(=O)N[C@@H](CC(C)C)C(=O)N[C@@H](CC(C)C)C(=O)N[C@@H](C)C(=O)N[C@@H](CCC(N)=O)C(=O)N[C@@H](CCCCN)C(=O)N1CCC[C@H]1C(=O)N[C@@H](CO)C(=O)N[C@@H](CO)C(=O)NCC(=O)N[C@@H](C)C(=O)N1CCC[C@H]1C(=O)N1CCC[C@H]1C(=O)N1CCC[C@H]1C(=O)N[C@@H](CO)C(=O)O)C(C)C)[C@@H](C)CC [AT741] (H-EGTFISDYSIAMDK(C16 diacid)IHQQDFVEWLLAQKPSSGAPPPS-OH; N-terminus assumed) | Clear | 11 | fnd (Fnd = fibrils not detected within experiment time (96 hours) with agitation.) | – | –
CC[C@H](C)[C@H](NC(=O)[C@H](CO)NC(=O)[C@H](Cc1ccc(O)cc1)NC(=O)[C@H](CC(=O)O)NC(=O)[C@H](CO)NC(=O)[C@@H](NC(=O)[C@H](Cc1ccccc1)NC(=O)[C@@H](NC(=O)CNC(=O)[C@@H](N)CCC(=O)O)[C@@H](C)O)[C@@H](C)CC)C(=O)N[C@@H](C)C(=O)N[C@@H](CCSC)C(=O)N[C@@H](CC(=O)O)C(=O)N[C@@H](CCCCN)C(=O)N[C@H](C(=O)N[C@@H](Cc1c[nH]cn1)C(=O)N[C@@H](CCC(N)=O)C(=O)N[C@@H](CCC(N)=O)C(=O)N[C@@H](CC(=O)O)C(=O)N[C@@H](Cc1ccccc1)C(=O)N[C@H](C(=O)N[C@@H](CCC(=O)O)C(=O)N[C@@H](Cc1c[nH]c2ccccc12)C(=O)N[C@@H](CC(C)C)C(=O)N[C@@H](CC(C)C)C(=O)N[C@@H](C)C(=O)N[C@@H](CCC(N)=O)C(=O)N[C@@H](CCCCN)C(=O)N1CCC[C@H]1C(=O)N[C@@H](CO)C(=O)N[C@@H](CO)C(=O)N[C@@H](CCCCNC(=O)CCCCCCCCCCCCCCC(=O)O)C(=O)N[C@@H](C)C(=O)N1CCC[C@H]1C(=O)N1CCC[C@H]1C(=O)N1CCC[C@H]1C(=O)N[C@@H](CO)C(=O)O)C(C)C)[C@@H](C)CC [AT743] (H-EGTFISDYSIAMDKIHQQDFVEWLLAQKPSSK(C16 diacid)APPPS-OH; N-terminus assumed) | Clear | – | fnd (Fnd = fibrils not detected within experiment time (96 hours) with agitation.) | 19 | –
CC[C@H](C)[C@H](NC(=O)[C@H](CO)NC(=O)[C@H](Cc1ccc(O)cc1)NC(=O)[C@H](CC(=O)O)NC(=O)[C@H](CO)NC(=O)[C@@H](NC(=O)[C@H](Cc1ccccc1)NC(=O)[C@@H](NC(=O)CNC(=O)[C@@H](N)CCC(=O)O)[C@@H](C)O)[C@@H](C)CC)C(=O)N[C@@H](C)C(=O)N[C@@H](CCSC)C(=O)N[C@@H](CC(=O)O)C(=O)N[C@@H](CCCCN)C(=O)N[C@H](C(=O)N[C@@H](CCCCNC(=O)CCCCCCCCCCCCCCC(=O)O)C(=O)N[C@@H](CCC(N)=O)C(=O)N[C@@H](CCC(N)=O)C(=O)N[C@@H](CC(=O)O)C(=O)N[C@@H](Cc1ccccc1)C(=O)N[C@H](C(=O)N[C@@H](CCC(=O)O)C(=O)N[C@@H](Cc1c[nH]c2ccccc12)C(=O)N[C@@H](CC(C)C)C(=O)N[C@@H](CC(C)C)C(=O)N[C@@H](C)C(=O)N[C@@H](CCC(=O)O)C(=O)N[C@@H](CCCCN)C(=O)N1CCC[C@H]1C(=O)N[C@@H](CO)C(=O)N[C@@H](CO)C(=O)NCC(=O)N[C@@H](C)C(=O)N1CCC[C@H]1C(=O)N1CCC[C@H]1C(=O)N1CCC[C@H]1C(=O)N[C@@H](CO)C(=O)O)C(C)C)[C@@H](C)CC [AT747] (H-EGTFISDYSIAMDKIK(C16 diacid)QQDFVEWLLAEKPSSGAPPPS-OH; N-terminus assumed) | Clear | 14 | – | – | <24
CC[C@H](C)[C@H](NC(=O)[C@H](CO)NC(=O)[C@H](Cc1ccc(O)cc1)NC(=O)[C@H](CC(=O)O)NC(=O)[C@H](CO)NC(=O)[C@@H](NC(=O)[C@H](Cc1ccccc1)NC(=O)[C@@H](NC(=O)CNC(=O)[C@@H](N)CCC(=O)O)[C@@H](C)O)[C@@H](C)CC)C(=O)N[C@@H](C)C(=O)N[C@@H](CCSC)C(=O)N[C@@H](CC(=O)O)C(=O)N[C@@H](CCCCN)C(=O)N[C@H](C(=O)N[C@@H](CCCCNC(=O)CCCCCCCCCCCCCCC(=O)O)C(=O)N[C@@H](CCC(N)=O)C(=O)N[C@@H](CCC(N)=O)C(=O)N[C@@H](CC(=O)O)C(=O)N[C@@H](Cc1ccccc1)C(=O)N[C@H](C(=O)N[C@@H](CCC(=O)O)C(=O)N[C@@H](Cc1c[nH]c2ccccc12)C(=O)N[C@@H](CC(C)C)C(=O)N[C@@H](CC(C)C)C(=O)N[C@@H](C)C(=O)N[C@@H](CCC(N)=O)C(=O)N[C@@H](CCCCN)C(=O)O)C(C)C)[C@@H](C)CC [AT749] (H-EGTFISDYSIAMDKIK(C16 diacid)QQDFVEWLLAQK-OH; N-terminus assumed) | Clear | – | – | 2.2 | <24
